Reference: patent publication US6399561B1, “Methods and compositions for bleaching a dye in solution” (Novozymes A/S, priority 1998, dated 2002)

Tested on: Recombinant Coprinus cinereus laccase (rCcL)
Experiment: Bleaching of methyl orange using rCcL and NOH-type enhancing agents (initial bleaching rate)
Format: biochemical
Details: pH 4; rCcL solution diluted 1:200; 0.2 mM mediator; 30° C.; large negative numbers = best performance
Method: (§1) Britton-Robinson buffer is composed of:
(§2) Methyl orange (Merck, Germany)
(§3) Reactions were started by addition of enzyme. Absorbance at 464 nm was followed for 3 minutes (readings every 5 seconds) on a Cobas Fara at 30° C. Initial bleaching rates were determined from the first linear part of the progress curves.
(§4) The N—OH compounds listed above were tested as laccase mediators in bleaching of methyl orange with three recombinant laccases (rPpL, rMtL and rCcL) at various pH values. Large negative numbers represent the best performance.

First: CC(=O)N(O)c1ccccc1 [N-hydroxyacetanilide, N-Hydroxyacetanilide]
Second: [O-][n+]1cccc2ccccc21 [Quinoline-N-oxide]
The “Initial changes per minute in A464 nm of methyl orange using rCcL” value (shortened to “Initial changes per minute … using rCcL”) of the first is lower: −0.521 per minute for the first, −0.004 per minute for the second.

For CS(=O)(=O)c1ccc2ccn(OC(=O)c3ccccc3)c2c1 [PFC-202, Benzoic acid[6-(methylsulphonyl)indol-1-yl]ester], the “Initial changes per minute … using rCcL” value was −0.005 per minute.

Same assay, conditions: pH 5; rCcL solution diluted 1:200; 0.2 mM mediator; 30° C.; large negative numbers = best performance

Compared with CC(=O)N(O)c1ccccc1 [N-hydroxyacetanilide, N-Hydroxyacetanilide], [O-][n+]1cccc2ccccc21 [Quinoline-N-oxide] is higher in “Initial changes per minute … using rCcL” value: −0.719 per minute for the first, −0.006 per minute for the second.

In the case of CS(=O)(=O)c1ccc2ccn(OC(=O)c3ccccc3)c2c1 [PFC-202, Benzoic acid[6-(methylsulphonyl)indol-1-yl]ester], the “Initial changes per minute … using rCcL” value is reported as −0.010 per minute.

Same assay, conditions: pH 6; rCcL solution diluted 1:200; 0.2 mM mediator; 30° C.; large negative numbers = best performance

Compared with CC(=O)N(O)c1ccccc1 [N-hydroxyacetanilide, N-Hydroxyacetanilide], [O-][n+]1cccc2ccccc21 [Quinoline-N-oxide] is higher in “Initial changes per minute … using rCcL” value: −0.674 per minute for the first, −0.010 per minute for the second.

In the case of CS(=O)(=O)c1ccc2ccn(OC(=O)c3ccccc3)c2c1 [PFC-202, Benzoic acid[6-(methylsulphonyl)indol-1-yl]ester], the “Initial changes per minute … using rCcL” value is reported as −0.016 per minute.

Same assay, conditions: pH 7; rCcL solution diluted 1:200; 0.2 mM mediator; 30° C.; large negative numbers = best performance

First: CC(=O)N(O)c1ccccc1 [N-hydroxyacetanilide, N-Hydroxyacetanilide]
Second: [O-][n+]1cccc2ccccc21 [Quinoline-N-oxide]
The “Initial changes per minute … using rCcL” value of the first is lower: −0.498 per minute for the first, −0.008 per minute for the second.

For CS(=O)(=O)c1ccc2ccn(OC(=O)c3ccccc3)c2c1 [PFC-202, Benzoic acid[6-(methylsulphonyl)indol-1-yl]ester], the “Initial changes per minute … using rCcL” value was 0.000 per minute.

Same assay, conditions: pH 8; rCcL solution diluted 1:200; 0.2 mM mediator; 30° C.; large negative numbers = best performance

Going from CC(=O)N(O)c1ccccc1 [N-hydroxyacetanilide, N-Hydroxyacetanilide] to [O-][n+]1cccc2ccccc21 [Quinoline-N-oxide], the “Initial changes per minute … using rCcL” value rises from −0.136 per minute to −0.004 per minute.

With CS(=O)(=O)c1ccc2ccn(OC(=O)c3ccccc3)c2c1 [PFC-202, Benzoic acid[6-(methylsulphonyl)indol-1-yl]ester] the “Initial changes per minute … using rCcL” value was 0.011 per minute.

Same assay, conditions: summary of Tables 1-3 (rCcL, rMtL and rPpL, various pH)

In the case of CC(=O)N(O)c1ccccc1 [N-hydroxyacetanilide, N-Hydroxyacetanilide], the “bleaching of methyl orange, result in words” value is reported as “surprisingly good compared with the other N—OH types enhancing agents”.

Tested on: Recombinant Myceliophthora thermophila laccase (rMtL)
Experiment: Bleaching of methyl orange using rMtL and NOH-type enhancing agents (initial bleaching rate)
Format: biochemical
Details: pH 4; rMtL solution diluted 1:300; 0.2 mM mediator; 30° C.; large negative numbers = best performance
Method: as §1, §2, §3, §4

Going from CC(=O)N(O)c1ccccc1 [N-hydroxyacetanilide, N-Hydroxyacetanilide] to [O-][n+]1cccc2ccccc21 [Quinoline-N-oxide], the “Initial changes per minute in A464 nm of methyl orange using rMtL” value (“Initial changes per minute … using rMtL” below) rises from −1.306 per minute to −0.016 per minute.

With CS(=O)(=O)c1ccc2ccn(OC(=O)c3ccccc3)c2c1 [PFC-202, Benzoic acid[6-(methylsulphonyl)indol-1-yl]ester] the “Initial changes per minute … using rMtL” value was −0.020 per minute.

Same assay, conditions: pH 5; rMtL solution diluted 1:300; 0.2 mM mediator; 30° C.; large negative numbers = best performance

First: CC(=O)N(O)c1ccccc1 [N-hydroxyacetanilide, N-Hydroxyacetanilide]
Second: [O-][n+]1cccc2ccccc21 [Quinoline-N-oxide]
The “Initial changes per minute … using rMtL” value of the first is lower: −1.847 per minute for the first, −0.011 per minute for the second.

With CS(=O)(=O)c1ccc2ccn(OC(=O)c3ccccc3)c2c1 [PFC-202, Benzoic acid[6-(methylsulphonyl)indol-1-yl]ester] the “Initial changes per minute … using rMtL” value was −0.017 per minute.

Same assay, conditions: pH 6; rMtL solution diluted 1:300; 0.2 mM mediator; 30° C.; large negative numbers = best performance

First: CC(=O)N(O)c1ccccc1 [N-hydroxyacetanilide, N-Hydroxyacetanilide]
Second: [O-][n+]1cccc2ccccc21 [Quinoline-N-oxide]
The “Initial changes per minute … using rMtL” value of the first is lower: −0.630 per minute for the first, −0.002 per minute for the second.

For CS(=O)(=O)c1ccc2ccn(OC(=O)c3ccccc3)c2c1 [PFC-202, Benzoic acid[6-(methylsulphonyl)indol-1-yl]ester], the “Initial changes per minute … using rMtL” value was 0.001 per minute.

Same assay, conditions: pH 7; rMtL solution diluted 1:300; 0.2 mM mediator; 30° C.; large negative numbers = best performance

First: CC(=O)N(O)c1ccccc1 [N-hydroxyacetanilide, N-Hydroxyacetanilide]
Second: [O-][n+]1cccc2ccccc21 [Quinoline-N-oxide]
The “Initial changes per minute … using rMtL” value of the first is lower: −0.101 per minute for the first, 0.000 per minute for the second.

For CS(=O)(=O)c1ccc2ccn(OC(=O)c3ccccc3)c2c1 [PFC-202, Benzoic acid[6-(methylsulphonyl)indol-1-yl]ester], the “Initial changes per minute … using rMtL” value was 0.005 per minute.

Target: T1, Polyporus pinsitus laccase (Trametes villosa, UniProt Q99044)
T1 construct: made in house
T1 sequence (Q99044 22-520): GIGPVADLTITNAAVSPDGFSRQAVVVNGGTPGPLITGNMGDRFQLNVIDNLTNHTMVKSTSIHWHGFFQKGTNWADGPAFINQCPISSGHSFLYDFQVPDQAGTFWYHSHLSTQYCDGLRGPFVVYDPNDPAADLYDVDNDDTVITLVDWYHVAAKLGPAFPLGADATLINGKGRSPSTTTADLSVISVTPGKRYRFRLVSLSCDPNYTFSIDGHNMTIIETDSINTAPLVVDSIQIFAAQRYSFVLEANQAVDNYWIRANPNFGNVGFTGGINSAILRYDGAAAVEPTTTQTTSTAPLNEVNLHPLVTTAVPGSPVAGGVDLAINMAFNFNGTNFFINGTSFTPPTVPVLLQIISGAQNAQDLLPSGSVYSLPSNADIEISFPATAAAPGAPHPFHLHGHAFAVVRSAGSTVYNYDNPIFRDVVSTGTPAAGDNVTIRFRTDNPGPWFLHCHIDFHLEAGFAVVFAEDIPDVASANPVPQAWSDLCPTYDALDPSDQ
Experiment: Bleaching of methyl orange using rPpL and NOH-type enhancing agents (initial bleaching rate)
Format: biochemical
Details: pH 4; rPpL solution diluted 1:200; 0.2 mM mediator; 30° C.; large negative numbers = best performance
Method: as §1, §2, §3, §4

Going from CC(=O)N(O)c1ccccc1 [N-hydroxyacetanilide, N-Hydroxyacetanilide] to [O-][n+]1cccc2ccccc21 [Quinoline-N-oxide], the “Initial changes per minute in A464 nm of methyl orange using rPpL” value (“Initial changes per minute … using rPpL” below) rises from −4.743 per minute to −0.074 per minute.

In the case of CS(=O)(=O)c1ccc2ccn(OC(=O)c3ccccc3)c2c1 [PFC-202, Benzoic acid[6-(methylsulphonyl)indol-1-yl]ester], the “Initial changes per minute … using rPpL” value is reported as −0.047 per minute.

Same assay, conditions: pH 5; rPpL solution diluted 1:200; 0.2 mM mediator; 30° C.; large negative numbers = best performance

Going from CC(=O)N(O)c1ccccc1 [N-hydroxyacetanilide, N-Hydroxyacetanilide] to [O-][n+]1cccc2ccccc21 [Quinoline-N-oxide], the “Initial changes per minute … using rPpL” value rises from −6.528 per minute to −0.041 per minute.

In the case of CS(=O)(=O)c1ccc2ccn(OC(=O)c3ccccc3)c2c1 [PFC-202, Benzoic acid[6-(methylsulphonyl)indol-1-yl]ester], the “Initial changes per minute … using rPpL” value is reported as −0.035 per minute.

Same assay, conditions: pH 6; rPpL solution diluted 1:200; 0.2 mM mediator; 30° C.; large negative numbers = best performance

First: CC(=O)N(O)c1ccccc1 [N-hydroxyacetanilide, N-Hydroxyacetanilide]
Second: [O-][n+]1cccc2ccccc21 [Quinoline-N-oxide]
The “Initial changes per minute … using rPpL” value of the first is lower: −1.837 per minute for the first, −0.016 per minute for the second.

With CS(=O)(=O)c1ccc2ccn(OC(=O)c3ccccc3)c2c1 [PFC-202, Benzoic acid[6-(methylsulphonyl)indol-1-yl]ester] the “Initial changes per minute … using rPpL” value was −0.001 per minute.

Same assay, conditions: pH 7; rPpL solution diluted 1:200; 0.2 mM mediator; 30° C.; large negative numbers = best performance

Compared with CC(=O)N(O)c1ccccc1 [N-hydroxyacetanilide, N-Hydroxyacetanilide], [O-][n+]1cccc2ccccc21 [Quinoline-N-oxide] is higher in “Initial changes per minute … using rPpL” value: −0.055 per minute for the first, −0.002 per minute for the second.

For CS(=O)(=O)c1ccc2ccn(OC(=O)c3ccccc3)c2c1 [PFC-202, Benzoic acid[6-(methylsulphonyl)indol-1-yl]ester], the “Initial changes per minute … using rPpL” value was 0.000 per minute.

Target: T1, Polyporus pinsitus laccase
Experiment: Bleaching of methyl orange with laccase and -NOH-CO- type mediators (microtitre plate, end-point absorbance)
Format: biochemical
Details: pH 4, laccase dilution 1:400, low values = best performance
Method: Polyporus pinsitus laccase as described in Example 1.
as §2
50 μl 0.1 mg/ml methyl orange
125 μl 0.1 M Britton-Robinson buffer (see example 1)
(§5) 25 μl 2 mM mediator or water (as reference)
50 μl laccase dilution (1:400)
Methyl orange, buffer and mediator are mixed in a microtitre plate and the reaction is started by addition of laccase. Absorbance is measured at 450 nm after 15 min.
N-Hydroxyacetanilide and N-(4-cyanophenyl)-N-hydroxyacetamide were tested as mediators in bleaching of methyl orange with a laccase at pH 4-6. Low values represent the best performance.

With CC(=O)N(O)c1ccccc1 [N-hydroxyacetanilide, N-Hydroxyacetanilide] the “Absorbance measured at 450 nm after 15 minutes” value (“Absorbance measured at 450 nm” below) was 0.077.

Same assay, conditions: pH 5, laccase dilution 1:400, low values = best performance

CC(=O)N(O)c1ccccc1 [N-hydroxyacetanilide, N-Hydroxyacetanilide] was tested, and the “Absorbance measured at 450 nm” value was 0.068.

Same assay, conditions: pH 6, laccase dilution 1:400, low values = best performance

CC(=O)N(O)c1ccccc1 [N-hydroxyacetanilide, N-Hydroxyacetanilide] was tested, and the “Absorbance measured at 450 nm” value was 0.087.

Target: T1, Polyporus pinsitus laccase
Experiment: Bleaching of various dyes with laccase and N-Hydroxyacetanilide (microtitre plate, end-point absorbance)
Format: biochemical
Details: dye Acid blue 45; + enzyme + mediator; pH 5; laccase dilution 1:400; low values = best performance
Method: Polyporus pinsitus laccase as described in Example 1, except that the concentration is 1726 LACU/ml.
125 μl 0.1 M Britton-Robinson buffer, pH 5 (see example 1)
as §5
50 μl laccase dilution (1:400) or water (as reference)
Dye, buffer and mediator are mixed in a micro-titre plate and the reaction is started by addition of laccase. Absorbance is measured at 595 nm after 5 min.
N-Hydroxyacetanilide was used as mediator in bleaching of various dyes with a laccase. Low values represent the best performance.

For CC(=O)N(O)c1ccccc1 [N-hydroxyacetanilide, N-Hydroxyacetanilide], the “Absorbance measured at 595 nm after 5 minutes” value (shortened to “Absorbance measured at 595 nm”) was 0.123.

Same assay, conditions: dye Acid blue 113; + enzyme + mediator; pH 5; laccase dilution 1:400; low values = best performance

With CC(=O)N(O)c1ccccc1 [N-hydroxyacetanilide, N-Hydroxyacetanilide] the “Absorbance measured at 595 nm” value was 0.062.

Same assay, conditions: dye CSB; + enzyme + mediator; pH 5; laccase dilution 1:400; low values = best performance

CC(=O)N(O)c1ccccc1 [N-hydroxyacetanilide, N-Hydroxyacetanilide] was tested, and the “Absorbance measured at 595 nm” value was 0.207.

Same assay, conditions: dye Cibacron Marine; + enzyme + mediator; pH 5; laccase dilution 1:400; low values = best performance

For CC(=O)N(O)c1ccccc1 [N-hydroxyacetanilide, N-Hydroxyacetanilide], the “Absorbance measured at 595 nm” value was 0.235.
